Source: ChEMBL document CHEMBL1629455, “Discovery of a novel class of biphenyl pyrazole sodium channel blockers for treatment of neuropathic pain” (Bioorg Med Chem Lett, 2010)
pIC50: −log10 of the molar value.

Columns and labels:
Mus musculus [1] = assay: Neurotoxicity in conscious mouse assessed as effect on behavior at 100 mg/kg after 5 hrs; format: toxicity, organism-based; parameters: dose 100 mg/kg; settings: in vivo
Mus musculus [2] = assay: Neurotoxicity in conscious mouse assessed as effect on CNS function at 100 mg/kg after 24 hrs; format: toxicity, organism-based, Central nervous system; parameters: dose 100 mg/kg; settings: in vivo
Mus musculus [3] = assay: Neurotoxicity in conscious mouse assessed as effect on CNS function at 100 mg/kg after 5 hrs; format: toxicity, organism-based, Central nervous system; parameters: dose 100 mg/kg; settings: in vivo
Mus musculus [4] = assay: Neurotoxicity in conscious mouse assessed as effect on CNS function at 100 mg/kg after 2 hrs; format: toxicity, organism-based, Central nervous system; parameters: dose 100 mg/kg; settings: in vivo
Plasma [5] = assay: Plasma concentration in dog at 3 mg/kg, iv; format: ADME, organism-based, Canis lupus familiaris; parameters: dose 3 mg/kg, route intravenous; settings: in vivo
Plasma [6] = assay: Plasma concentration in dog at 1 mg/kg, iv; format: ADME, organism-based, Canis lupus familiaris; parameters: dose 1 mg/kg, route intravenous; settings: in vivo
Canis familiaris [7] = assay: Cardiotoxicity in anesthetized dog assessed as increase in PR interval at 10 mg/kg, iv; format: toxicity, organism-based, Canis lupus familiaris; parameters: dose 10 mg/kg, route intravenous; settings: in vivo
Canis familiaris [8] = assay: Cardiotoxicity in anesthetized dog assessed as effect on QTc interval at 10 mg/kg, iv; format: toxicity, organism-based, Canis lupus familiaris; parameters: dose 10 mg/kg, route intravenous; settings: in vivo
Canis familiaris [9] = assay: Cardiotoxicity in anesthetized dog assessed as effect on QTc interval at 3 mg/kg, iv; format: toxicity, organism-based, Canis lupus familiaris; parameters: dose 3 mg/kg, route intravenous; settings: in vivo
Canis familiaris [10] = assay: Cardiotoxicity in anesthetized dog assessed as effect on QTc interval at 1 mg/kg, iv; format: toxicity, organism-based, Canis lupus familiaris; parameters: dose 1 mg/kg, route intravenous; settings: in vivo
Canis familiaris [11] = assay: Cardiotoxicity in anesthetized dog assessed as effect on QRS interval at 1 mg/kg, iv; format: toxicity, organism-based, Canis lupus familiaris; parameters: dose 1 mg/kg, route intravenous; settings: in vivo
Canis familiaris [12] = assay: Cardiotoxicity in anesthetized dog assessed as effect on heart rate at 10 mg/kg, iv; format: toxicity, organism-based, Canis lupus familiaris; parameters: dose 10 mg/kg, route intravenous; settings: in vivo
Canis familiaris [13] = assay: Cardiotoxicity in anesthetized dog assessed as effect on heart rate at 3 mg/kg, iv; format: toxicity, organism-based, Canis lupus familiaris; parameters: dose 3 mg/kg, route intravenous; settings: in vivo
Canis familiaris [14] = assay: Cardiotoxicity in anesthetized dog assessed as effect on heart rate at 1 mg/kg, iv; format: toxicity, organism-based, Canis lupus familiaris; parameters: dose 1 mg/kg, route intravenous; settings: in vivo
Canis familiaris [15] = assay: Cardiotoxicity in anesthetized dog assessed as effect on mean arterial pressure at 10 mg/kg, iv; format: toxicity, organism-based, Canis lupus familiaris, Artery; parameters: dose 10 mg/kg, route intravenous; settings: in vivo
Canis familiaris [16] = assay: Cardiotoxicity in anesthetized dog assessed as effect on mean arterial pressure at 3 mg/kg, iv; format: toxicity, organism-based, Canis lupus familiaris, Artery; parameters: dose 3 mg/kg, route intravenous; settings: in vivo
Canis familiaris [17] = assay: Cardiotoxicity in anesthetized dog assessed as effect on mean arterial pressure at 1 mg/kg, iv; format: toxicity, organism-based, Canis lupus familiaris, Artery; parameters: dose 1 mg/kg, route intravenous; settings: in vivo
[18] = Plasma concentration in rat 30 to 100 mg/kg, po after 3.5 hrs; format: ADME, organism-based; parameters: dose 30-100 mg/kg, route oral
Rattus norvegicus [19] = assay: Neurotoxicity in rat assessed as effect on motor coordination at 30 mg/kg, po by rotarod test (reference value: 18%); format: toxicity, organism-based; parameters: dose 30 mg/kg, route oral; settings: in vivo
Rattus norvegicus [20] = assay: Antiallodynic activity in rat […] model assessed as reversal of complete Freund's adjuvant-induced allodynia at 30 mg/kg, po after 4 hrs; format: functional
Rattus norvegicus [21] = assay: Antiallodynic activity in rat spinal nerve ligation model of neuropathic pain assessed as reversal of allodynia at 30 mg/kg, po after 4 hrs; format: functional
Rattus norvegicus [22] = assay: Antiallodynic activity in rat spinal nerve ligation model of neuropathic pain assessed as reversal of allodynia at 3 mg/kg, po after 4 hrs; format: functional
Rattus norvegicus [23] = assay: Antiallodynic activity in rat spinal nerve ligation model of neuropathic pain assessed as reversal of allodynia at 3 mg/kg, po after 2 hrs; format: functional
[24] = AUC in dog at 60 mg/kg, po; format: ADME, organism-based, Canis lupus familiaris; parameters: dose 60 mg/kg, route oral; settings: plasma
[25] = AUC in dog at 20 mg/kg, po; format: ADME, organism-based, Canis lupus familiaris; parameters: dose 20 mg/kg, route oral; settings: plasma
[26] = Cmax in dog at 60 mg/kg, po; format: ADME, organism-based, Canis lupus familiaris; parameters: dose 60 mg/kg, route oral; settings: in vivo
[27] = Cmax in dog at 20 mg/kg, po; format: ADME, organism-based, Canis lupus familiaris; parameters: dose 20 mg/kg, route oral; settings: in vivo
[28] = Bioavailability in dog at 0.5 mg/kg, iv and 2 mg/kg, po; format: ADME, organism-based, Canis lupus familiaris; settings: in vivo
[29] = AUC in dog at 2 mg/kg, po; format: ADME, organism-based, Canis lupus familiaris; parameters: dose 2 mg/kg, route oral; settings: plasma
Canis familiaris [30] = assay: Clearance in dog plasma at 0.5 mg/kg, iv and 2 mg/kg, po; format: ADME, organism-based, Canis lupus familiaris; settings: in vivo
[31] = Cmax in dog at 0.5 mg/kg, iv and 2 mg/kg, po; format: ADME, organism-based, Canis lupus familiaris; settings: in vivo
[32] = Bioavailability in rat at 1 mg/kg, iv and 3 mg/kg, po; format: ADME, organism-based; settings: in vivo
Rattus norvegicus [33] = assay: Clearance in rat plasma at 1 mg/kg, iv and 3 mg/kg, po; format: ADME, organism-based; settings: in vivo
[34] = AUC in rat at 3 mg/kg, po; format: ADME, organism-based; parameters: dose 3 mg/kg, route oral; settings: plasma
[35] = Metabolic stability in dog liver microsomes assessed as compound remaining after 60 mins in presence of 10 uM substrate; format: ADME, Canis lupus familiaris, Microsome; settings: read-out: Stability
[36] = Metabolic stability in rat liver microsomes assessed as compound remaining after 60 mins in presence of 10 uM substrate; format: ADME, Microsome; settings: read-out: Stability
[37] = target: T1, Nuclear receptor subfamily 1 group I member 2 (Homo sapiens, UniProt O75469); assay: Induction of PXR
T1 sequence (O75469 whole entry): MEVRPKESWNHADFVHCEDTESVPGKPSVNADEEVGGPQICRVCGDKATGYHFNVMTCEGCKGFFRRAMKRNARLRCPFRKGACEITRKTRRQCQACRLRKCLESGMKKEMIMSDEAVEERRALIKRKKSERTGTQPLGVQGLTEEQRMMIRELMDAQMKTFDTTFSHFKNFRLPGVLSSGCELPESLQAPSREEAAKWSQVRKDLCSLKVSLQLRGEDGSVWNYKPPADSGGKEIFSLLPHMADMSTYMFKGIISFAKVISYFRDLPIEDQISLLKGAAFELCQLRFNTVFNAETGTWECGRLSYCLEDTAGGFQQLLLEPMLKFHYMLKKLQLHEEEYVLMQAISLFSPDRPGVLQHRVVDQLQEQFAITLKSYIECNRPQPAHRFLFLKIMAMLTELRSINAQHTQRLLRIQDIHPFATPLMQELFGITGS

Cytochrome P450 2D6 = Cytochrome P450 2D6 (Homo sapiens, UniProt P10635); assay: Inhibition of CYP2D6; format: ADME
Cytochrome P450 2C9 = Cytochrome P450 2C9 (Homo sapiens, UniProt P11712); assay: Inhibition of CYP2C9; format: ADME
Cytochrome P450 3A4 = Cytochrome P450 3A4 (Homo sapiens, UniProt P08684); assay: Inhibition of CYP3A4; format: ADME
[38] = target: Sodium channel protein type 5 subunit alpha (Homo sapiens, UniProt Q14524); assay: Inhibition of Nav1.5 by VIPR assay
[39] = target: Cav1.2 (L-type calcium channel subunit alpha-1C) (Homo sapiens, UniProt Q13936); assay: Inhibition of DLZ binding to Cav1.2 at 10 uM; settings: probe DLZ
hERG (KCNH2) [40] = target: T2, hERG (KCNH2) (Homo sapiens, UniProt Q12809); assay: Inhibition of human ERG at 30 uM by electrophysiology assay
Rattus norvegicus [41] = assay: Antiallodynic activity in rat spinal nerve ligation model of neuropathic pain assessed as reversal of allodynia at 10 mg/kg, po after 2 hrs; format: functional; settings: Rattus norvegicus, Spinal nerve, 2 h
hERG (KCNH2) [42] = target: T2, hERG (KCNH2); assay: Inhibition of MK-0499 binding to human ERG at 10 uM; settings: probe MK-0499
Mus musculus [43] = assay: Neurotoxicity in conscious mouse assessed as effect on behavior at 100 mg/kg after 24 hrs; format: toxicity, organism-based; parameters: dose 100 mg/kg; settings: in vivo
Mus musculus [44] = assay: Neurotoxicity in conscious mouse assessed as effect on motor activity at 100 mg/kg after 5 hrs; format: toxicity, organism-based; parameters: dose 100 mg/kg; settings: in vivo
Mus musculus [45] = assay: Neurotoxicity in conscious mouse assessed as effect on body temperature at 100 mg/kg after 5 hrs; format: toxicity, organism-based; parameters: dose 100 mg/kg; settings: in vivo
Mus musculus [46] = assay: Neurotoxicity in conscious mouse assessed as effect on body temperature at 100 mg/kg after 24 hrs; format: toxicity, organism-based; parameters: dose 100 mg/kg; settings: in vivo

T2 sequence (Q12809 whole entry): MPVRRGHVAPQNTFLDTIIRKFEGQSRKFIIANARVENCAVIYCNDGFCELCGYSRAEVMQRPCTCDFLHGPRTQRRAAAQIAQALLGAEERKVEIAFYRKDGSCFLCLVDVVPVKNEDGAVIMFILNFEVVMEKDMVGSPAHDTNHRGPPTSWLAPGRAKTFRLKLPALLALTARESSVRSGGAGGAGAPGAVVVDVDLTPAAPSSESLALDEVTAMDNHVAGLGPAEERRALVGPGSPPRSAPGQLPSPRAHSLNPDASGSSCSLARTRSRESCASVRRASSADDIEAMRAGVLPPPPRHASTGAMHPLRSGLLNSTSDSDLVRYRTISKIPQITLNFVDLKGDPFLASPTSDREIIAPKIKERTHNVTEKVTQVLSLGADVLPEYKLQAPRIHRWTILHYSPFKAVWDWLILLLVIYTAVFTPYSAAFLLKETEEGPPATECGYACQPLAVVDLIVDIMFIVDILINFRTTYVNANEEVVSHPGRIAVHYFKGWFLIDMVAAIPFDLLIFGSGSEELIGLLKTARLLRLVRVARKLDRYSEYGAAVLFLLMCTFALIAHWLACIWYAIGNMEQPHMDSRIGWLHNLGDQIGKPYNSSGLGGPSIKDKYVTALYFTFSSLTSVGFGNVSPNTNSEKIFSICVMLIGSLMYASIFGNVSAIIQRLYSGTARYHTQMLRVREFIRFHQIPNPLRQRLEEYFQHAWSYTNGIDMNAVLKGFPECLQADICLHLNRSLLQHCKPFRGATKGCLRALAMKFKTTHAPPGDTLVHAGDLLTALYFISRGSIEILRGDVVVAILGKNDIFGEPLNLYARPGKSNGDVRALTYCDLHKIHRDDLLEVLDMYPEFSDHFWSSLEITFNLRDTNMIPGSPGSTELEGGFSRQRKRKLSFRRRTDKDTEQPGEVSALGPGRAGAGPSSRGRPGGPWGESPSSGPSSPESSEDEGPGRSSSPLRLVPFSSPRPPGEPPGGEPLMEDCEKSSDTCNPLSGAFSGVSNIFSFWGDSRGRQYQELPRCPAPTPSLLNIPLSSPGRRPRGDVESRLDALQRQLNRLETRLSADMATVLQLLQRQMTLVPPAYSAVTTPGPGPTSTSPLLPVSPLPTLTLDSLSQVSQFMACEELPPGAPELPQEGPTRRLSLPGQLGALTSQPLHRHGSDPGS
Cytochrome P450 2D6, sequence (P10635 whole entry): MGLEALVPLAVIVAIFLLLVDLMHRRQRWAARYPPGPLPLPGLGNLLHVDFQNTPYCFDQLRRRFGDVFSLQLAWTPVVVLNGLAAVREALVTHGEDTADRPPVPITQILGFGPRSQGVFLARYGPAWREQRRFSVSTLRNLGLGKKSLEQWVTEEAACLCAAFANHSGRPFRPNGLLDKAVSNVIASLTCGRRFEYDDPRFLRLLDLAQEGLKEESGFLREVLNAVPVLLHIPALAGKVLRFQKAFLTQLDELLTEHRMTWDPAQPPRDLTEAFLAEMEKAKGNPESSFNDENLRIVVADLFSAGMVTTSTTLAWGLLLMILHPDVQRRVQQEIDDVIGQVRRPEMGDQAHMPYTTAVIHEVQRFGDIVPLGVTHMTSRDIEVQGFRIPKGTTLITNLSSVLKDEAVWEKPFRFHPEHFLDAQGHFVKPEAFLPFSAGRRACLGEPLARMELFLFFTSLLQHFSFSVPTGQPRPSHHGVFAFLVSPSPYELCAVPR
Cytochrome P450 2C9, sequence (P11712 whole entry): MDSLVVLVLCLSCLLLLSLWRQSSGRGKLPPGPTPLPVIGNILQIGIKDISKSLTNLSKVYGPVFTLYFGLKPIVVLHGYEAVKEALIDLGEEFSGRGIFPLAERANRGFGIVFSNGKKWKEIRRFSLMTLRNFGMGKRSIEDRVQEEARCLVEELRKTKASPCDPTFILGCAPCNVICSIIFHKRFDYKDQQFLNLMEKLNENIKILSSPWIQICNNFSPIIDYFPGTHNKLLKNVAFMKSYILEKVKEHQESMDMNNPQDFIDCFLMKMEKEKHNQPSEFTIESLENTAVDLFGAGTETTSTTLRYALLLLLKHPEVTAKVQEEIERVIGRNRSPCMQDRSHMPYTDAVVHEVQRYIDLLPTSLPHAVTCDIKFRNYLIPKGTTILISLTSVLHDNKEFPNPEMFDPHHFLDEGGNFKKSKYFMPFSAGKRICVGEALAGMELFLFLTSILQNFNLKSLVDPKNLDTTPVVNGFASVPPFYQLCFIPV
Sodium channel protein type 5 subunit alpha, sequence (Q14524 whole entry): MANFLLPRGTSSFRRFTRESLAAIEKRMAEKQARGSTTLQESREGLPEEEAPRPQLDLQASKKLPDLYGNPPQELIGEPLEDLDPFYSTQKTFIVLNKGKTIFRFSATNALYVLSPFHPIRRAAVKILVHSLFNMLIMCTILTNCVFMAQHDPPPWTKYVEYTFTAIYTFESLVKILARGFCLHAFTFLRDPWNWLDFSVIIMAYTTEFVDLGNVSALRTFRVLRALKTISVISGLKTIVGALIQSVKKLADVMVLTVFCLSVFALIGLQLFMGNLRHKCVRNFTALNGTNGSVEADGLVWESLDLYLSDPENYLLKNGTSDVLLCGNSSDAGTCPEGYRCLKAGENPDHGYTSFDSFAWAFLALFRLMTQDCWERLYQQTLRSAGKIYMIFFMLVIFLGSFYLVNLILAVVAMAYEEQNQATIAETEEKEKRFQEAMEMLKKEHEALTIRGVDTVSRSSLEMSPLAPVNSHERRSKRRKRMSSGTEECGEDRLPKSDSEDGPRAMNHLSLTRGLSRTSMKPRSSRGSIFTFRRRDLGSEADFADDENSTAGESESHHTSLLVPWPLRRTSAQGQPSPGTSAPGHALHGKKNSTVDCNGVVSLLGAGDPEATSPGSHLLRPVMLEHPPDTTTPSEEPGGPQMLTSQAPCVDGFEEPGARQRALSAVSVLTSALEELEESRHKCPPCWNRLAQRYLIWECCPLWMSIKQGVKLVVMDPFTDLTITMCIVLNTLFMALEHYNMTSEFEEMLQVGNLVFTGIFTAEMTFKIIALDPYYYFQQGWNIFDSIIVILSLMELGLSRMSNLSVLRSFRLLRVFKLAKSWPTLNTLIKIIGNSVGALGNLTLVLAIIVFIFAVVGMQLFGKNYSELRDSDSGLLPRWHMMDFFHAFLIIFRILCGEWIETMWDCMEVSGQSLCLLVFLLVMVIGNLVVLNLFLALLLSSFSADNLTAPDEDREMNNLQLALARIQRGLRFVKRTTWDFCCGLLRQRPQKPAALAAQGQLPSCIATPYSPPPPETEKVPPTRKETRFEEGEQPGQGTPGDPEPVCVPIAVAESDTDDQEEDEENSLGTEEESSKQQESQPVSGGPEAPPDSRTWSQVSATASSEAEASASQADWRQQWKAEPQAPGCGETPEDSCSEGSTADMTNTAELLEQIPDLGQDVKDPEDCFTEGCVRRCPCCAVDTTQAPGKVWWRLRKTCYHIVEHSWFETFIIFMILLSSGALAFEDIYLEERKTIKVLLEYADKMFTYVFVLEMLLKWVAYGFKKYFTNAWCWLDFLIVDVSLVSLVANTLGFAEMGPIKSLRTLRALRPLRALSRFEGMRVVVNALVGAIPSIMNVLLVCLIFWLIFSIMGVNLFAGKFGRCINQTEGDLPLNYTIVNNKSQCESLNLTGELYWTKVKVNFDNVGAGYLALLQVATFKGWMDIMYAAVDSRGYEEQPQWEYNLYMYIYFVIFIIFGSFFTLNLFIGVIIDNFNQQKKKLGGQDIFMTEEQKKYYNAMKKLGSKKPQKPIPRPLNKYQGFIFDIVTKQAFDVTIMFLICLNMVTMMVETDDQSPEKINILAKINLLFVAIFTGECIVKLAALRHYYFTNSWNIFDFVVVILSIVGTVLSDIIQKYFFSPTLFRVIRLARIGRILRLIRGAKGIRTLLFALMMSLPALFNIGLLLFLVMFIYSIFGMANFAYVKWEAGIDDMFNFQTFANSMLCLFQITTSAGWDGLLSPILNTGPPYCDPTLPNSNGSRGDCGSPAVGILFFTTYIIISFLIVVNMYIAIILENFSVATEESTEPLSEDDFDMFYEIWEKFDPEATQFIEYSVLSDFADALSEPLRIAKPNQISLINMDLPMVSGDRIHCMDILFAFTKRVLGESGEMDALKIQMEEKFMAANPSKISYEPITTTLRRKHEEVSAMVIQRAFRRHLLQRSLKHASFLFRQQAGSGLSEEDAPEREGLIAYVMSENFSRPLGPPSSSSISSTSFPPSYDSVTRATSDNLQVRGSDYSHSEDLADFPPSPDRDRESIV
Cytochrome P450 3A4, sequence (P08684 whole entry): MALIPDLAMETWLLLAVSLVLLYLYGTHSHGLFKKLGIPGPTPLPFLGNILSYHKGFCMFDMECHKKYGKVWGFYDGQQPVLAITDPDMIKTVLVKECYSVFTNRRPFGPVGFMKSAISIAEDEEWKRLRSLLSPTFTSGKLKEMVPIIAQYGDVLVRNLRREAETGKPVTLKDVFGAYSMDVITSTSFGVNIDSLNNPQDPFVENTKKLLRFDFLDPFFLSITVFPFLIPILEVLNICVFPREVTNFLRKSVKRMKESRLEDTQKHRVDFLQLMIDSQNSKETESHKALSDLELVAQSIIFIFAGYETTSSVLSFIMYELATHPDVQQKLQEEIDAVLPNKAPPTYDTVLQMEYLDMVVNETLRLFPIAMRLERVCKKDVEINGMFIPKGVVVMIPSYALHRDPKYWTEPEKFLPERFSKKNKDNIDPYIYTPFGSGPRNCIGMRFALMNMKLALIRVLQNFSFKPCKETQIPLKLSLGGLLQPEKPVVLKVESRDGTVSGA

- concentration (Plasma [5]): 16.2 µM
- concentration (Plasma [6]): 7.3 µM
- concentration at 3.5 h [18]: 31.6 µM
- AUC [24]: 650 µM·h
- AUC [25]: 372 µM·h
- Cmax [26]: 24.4 µM
- Cmax [27]: 20.3 µM
- bioavailability [28]: 33%
- AUC [29]: 50 µM·h
- clearance (Canis familiaris [30]): 0.5 mL/min/kg
- Cmax [31]: 2.92 µM
- bioavailability [32]: 60%
- clearance (Rattus norvegicus [33]): 5 mL/min/kg
- AUC [34]: 5.6 µM·h
- remaining at 1 h, 10 uM [35]: > 99%
- remaining at 1 h, 10 uM [36]: > 99%
- pIC50 [37]: < 4.60
- pIC50 (Cytochrome P450 2D6): < 4.00
- pIC50 (Cytochrome P450 2C9): 4.69
- pIC50 (Cytochrome P450 3A4): < 4.00
SMILES: NC(=O)c1cc(C(N)=O)n(-c2cccc(-c3cc(C(F)(F)F)ccc3C(F)(F)F)c2)n1
- Activity (Mus musculus [1]): Non-toxic
- Activity (Mus musculus [2]): Non-toxic
- Activity (Mus musculus [3]): Non-toxic
- Activity (Mus musculus [4]): Non-toxic
- Activity (Canis familiaris [7]): 6%
- Activity (Canis familiaris [8]): Non-toxic
- Activity (Canis familiaris [9]): Non-toxic
- Activity (Canis familiaris [10]): Non-toxic
- Activity (Canis familiaris [11]): Non-toxic
- Activity (Canis familiaris [12]): Non-toxic
- Activity (Canis familiaris [13]): Non-toxic
- Activity (Canis familiaris [14]): Non-toxic
- Activity (Canis familiaris [15]): Non-toxic
- Activity (Canis familiaris [16]): Non-toxic
- Activity (Canis familiaris [17]): Non-toxic
- Activity (Rattus norvegicus [19]): -2%
- inhibition in vivo at 30 mg/kg (Rattus norvegicus [20]): 53%
- inhibition in vivo at 30 mg/kg (Rattus norvegicus [21]): 59%
- inhibition in vivo at 3 mg/kg (Rattus norvegicus [22]): 30%
- inhibition in vivo at 3 mg/kg (Rattus norvegicus [23]): 18%
- pIC50 [38]: 5.88
- inhibition at 10 µM [39]: 0%
- inhibition at 30 µM (hERG (KCNH2) [40]): 15%
- inhibition in vivo at 10 mg/kg (Rattus norvegicus [41]): 44%
- inhibition at 10 µM (hERG (KCNH2) [42]): 17%
- Activity (Mus musculus [43]): Non-toxic
- Activity (Mus musculus [44]): Non-toxic
- Activity (Mus musculus [45]): Non-toxic
- Activity (Mus musculus [46]): Non-toxic
